Measurements taken from patent publication US20050182025A1, “Amidinylphenyl compounds and their use as fungicides” (priority 2002, published 2005).

Key:
Format in all cases: in vivo
[1] = test system: Erysiphe graminis f. sp. tritici; test: Test A: preventive spray on wheat seedlings, wheat powdery mildew, disease rating; conditions: wheat seedlings sprayed to run-off, inoculated the following day with Erysiphe graminis f. sp. tritici, rated after 7 days at 20° C.; test concentration not given
How it was run: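 Wheat seedlings sprayed to run-off with compound suspension (200 ppm ≈ 500 g/ha) in acetone/water with surfactant, inoculated next day with Erysiphe graminis f. sp. tritici spores. After 7 days at 20 °C, disease rated 0–100 as % control relative to untreated plants.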

Puccinia recondita = test: Test B: preventive spray on wheat seedlings, wheat leaf rust, disease rating; conditions: wheat seedlings sprayed to run-off, inoculated the following day with Puccinia recondita, 24 h saturated atmosphere then 6 days at 20° C.; test concentration not given
How it was run: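 Compound suspended in acetone/water (50/50) with 250 ppm Trem 014 surfactant, sprayed to run-off on wheat seedlings (200 ppm ≈ 500 g/ha); P. recondita spores inoculated next day. Plants held 24 h saturated at 20° C, then 6 days at 20° C; disease rated as % control relative to untreated (100 = full control).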

Septoria nodorum = test: Test C: preventive spray on wheat seedlings, Septoria glume blotch, disease rating; conditions: wheat seedlings sprayed to run-off, inoculated the following day with Septoria nodorum, 48 h saturated atmosphere then 9 days at 20° C.; test concentration not given
How it was run: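 Wheat seedlings were sprayed to run-off with compound suspensions in acetone/water containing 250 ppm Trem 014 (200 ppm equals 500 g/ha), then inoculated with Septoria nodorum spores next day. Plants were held 48 h saturated at 20° C., then 9 days at 20° C. Disease control was rated 0–100 relative to controls.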

| Structure (SMILES) | Test A disease control rating (100 = 100% disease control, 0 = no disease control relative to the controls) [1] [%] | Test B disease control rating (100 = 100% disease control, 0 = no disease control relative to the controls) (Puccinia recondita) [%] | Test C disease control rating (100 = 100% disease control, 0 = no disease control relative to the controls) (Septoria nodorum) [%] |
| --- | --- | --- | --- |
| CCC[Si](C)(C)CCCOc1cc(C)c(N=CN(C)C)cc1C [Compound 52] | 100 | 100 | 99 |
| Cc1cc(OCCC[Si](C)(C)C)c(Cl)cc1NC(=S)N(C)C [compound 168] | 99 | 100 | 100 |
| CCN(C)C=Nc1cc(F)c(OCCC[Si](C)(C)C)cc1C [compound 59] | 100 | 100 | 100 |
| Cc1cc(OCCCC(C)C(C)C)c(C)cc1N=CN(C)C (stereo not drawn) [Compound 49] | 99 | 99 | 83 |
| CCN(C)C(=S)Nc1cc(C)c(OCCC[Si](C)(C)CC)cc1C [compound 77] | 100 | 100 | 100 |
| Cc1cc(OCCC[Si](C)(C)C)c(F)cc1N=CN(C)C(C)C [compound 63] | 100 | 100 | 100 |
| C=CCN(C)C=Nc1cc(F)c(OCCC[Si](C)(C)C)cc1C [compound 64] | 100 | 100 | 100 |
| CCN(C)C(=S)Nc1cc(Cl)c(OCCCC(C)C)cc1C [compound 114] | 99 | 100 | 100 |
| CCN(C)C(=S)Nc1cc(C(C)C)c(OCCC[Si](C)(C)C)cc1C [compound 94] | 99 | 100 | 100 |
| CC(=Nc1cc(C)c(OCCC(C)CC(C)(C)C)cc1C)N(C)C (stereo not drawn) [compound 98] | 0 | 60 | 94 |
| Cc1c(NC(=S)N(C)C)cc(Cl)c(OCCCC(C)C)c1Cl [compound 119] | 0 | 64 | 78 |
| Cc1cc(OCCC[Si](C)(C)C)c(Cl)cc1N=CN(C)C1CC1 [compound 61] | 100 | 100 | 100 |
| CC(C)CCCOc1cc(Cl)c(NC(=S)N(C)C)cc1Cl [compound 123] | 54 | 46 | 100 |
| Cc1cc(OCCOC(C)(C)C)c(C)cc1NC(=S)N(C)C [compound 165] | 0 | 28 | 0 |
| Cc1cc(OCCCO[Si](C)(C)C(C)(C)C)c(C)cc1N=CN(C)C [Compound 27] | 99 | 100 | 100 |
| CCCCCCCCOc1cc(C)c(N=CN(C)C)cc1C [Compound 22] | 98 | 100 | 88 |

| Structure (SMILES) | Test A disease control rating (100 = 100% disease control, 0 = no disease control relative to the controls) [1] [%] | Test B disease control rating (100 = 100% disease control, 0 = no disease control relative to the controls) (Puccinia recondita) [%] | Test C disease control rating (100 = 100% disease control, 0 = no disease control relative to the controls) (Septoria nodorum) [%] |
| --- | --- | --- | --- |
| CC[Si](C)(C)CCCOc1cc(C)c(N=CN(C)C2CC2)cc1Cl [compound 65] | 100 | 100 | 96 |
| CCCCCCCCCOc1cc(C)c(N=CN(C)C)cc1C [Compound 23] | 97 | 98 | 13 |
| CCN(CC)C(=S)Nc1cc(Cl)c(OCCC[Si](C)(C)C)c(Cl)c1C [compound 179] | 20 | 23 | 0 |
| CCCN(C)C=Nc1cc(F)c(OCCC[Si](C)(C)C)cc1C [compound 60] | 100 | 100 | 100 |
| Cc1cc(OCCC(C)CCCC(C)C)c(C)cc1N=CN(C)C (stereo not drawn) [Compound 10] | 97 | 100 | 0 |
| CCCCCC(CCCCC)Oc1cc(C)c(N=C(C)N(C)C)cc1C [compound 99] | 0 | 9 | 0 |
| Cc1cc(OCCCC(C)(Cl)C(C)C)c(C)cc1N=CN(C)C (stereo not drawn) [Compound 46] | 97 | 100 | 97 |
| CCCCCCCCCCCCOc1cc(C)c(N=CN(C)C)cc1C [Compound 25] | 0 | 90 | 0 |
| CCCC(CCC(C)C)Nc1cc(C)c(N=CN(C)C)cc1C (stereo not drawn) [compound 148] | 0 | 0 | 47 |
| Cc1cc(OCCCCC(C)(C)C#N)c(C)cc1N=CN(C)C [Compound 47] | 29 | 99 | 80 |
| CCN(CC)C(=S)Nc1cc(Cl)c(OCCCC(C)(C)C)cc1C [compound 120] | 91 | 8 | 0 |
| CCCCCCCOc1cc(C)c(N=CN(C)C)cc1C [Compound 21] | 98 | 100 | 96 |
| CCN(C)C(=S)Nc1cc(Cl)c(OCCC[Si](C)(C)C)cc1Cl [compound 184] | 100 | 99 | 78 |
| Cc1cc(OCCC(C)CC(C)(C)C)c(C)cc1N=CN(C)C (stereo not drawn) [Compound 11] | 97 | 100 | 100 |
| Cc1cc(NC(=O)N(C)CC(C)(C)C)c(C)cc1N=CN(C)C [compound 193] | 0 | 23 | 0 |
| CCN(C)C=Nc1cc(C)c(OCCCC(C)(C)C)c(Cl)c1C [compound 201] | 100 | 100 | 100 |
